Measurements from ChEMBL document CHEMBL1201862, “PubChem BioAssay data set” (2004).
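Assay format: 96-well plates, 48-hour exposure. GI50 = concentration required for 50% inhibition of growth.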 Calls of active or inactive are those of the source. Rule as the data show it: active = GI50 up to about 1.1 µM and inactive = higher.

Columns and labels:
Experiment in all cases: growth of human tumour cells (NCI), 48 h
786-0 = test system: 786-0
A498 = test system: A498
A549 = test system: A549
ACHN = test system: ACHN
BT-549 = test system: BT-549
CAKI-1 = test system: CAKI-1
CCRF-CEM = test system: CCRF-CEM
COLO 205 = test system: COLO 205
DU-145 = test system: DU-145
EKVX = test system: EKVX
HCC 2998 = test system: HCC 2998
HCT-116 = test system: HCT-116
HCT-15 = test system: HCT-15
HOP-62 = test system: HOP-62
HOP-92 = test system: HOP-92
HT-29 = test system: HT-29
Hs-578T = test system: Hs-578T
IGROV-1 = test system: IGROV-1
KM12 = test system: KM12
LOX IMVI = test system: LOX IMVI
M14 = test system: M14
MCF7 = test system: MCF7
MDA-MB-231 = test system: MDA-MB-231
MDA-MB-435 = test system: MDA-MB-435
MDA-N = test system: MDA-N
MOLT-4 = test system: MOLT-4
Malme-3M = test system: Malme-3M
NCI-H226 = test system: NCI-H226
NCI-H23 = test system: NCI-H23
NCI-H522 = test system: NCI-H522
NCI/ADR-RES = test system: NCI/ADR-RES
OVCAR-3 = test system: OVCAR-3
OVCAR-4 = test system: OVCAR-4
OVCAR-5 = test system: OVCAR-5
OVCAR-8 = test system: OVCAR-8
PC-3 = test system: PC-3
RPMI-8226 = test system: RPMI-8226
RXF 393 = test system: RXF 393
SF-268 = test system: SF-268
SF-295 = test system: SF-295
SF-539 = test system: SF-539
SK-MEL-28 = test system: SK-MEL-28
SK-MEL-2 = test system: SK-MEL-2
SK-MEL-5 = test system: SK-MEL-5
SK-OV-3 = test system: SK-OV-3
SN12C = test system: SN12C
SNB-19 = test system: SNB-19
SNB-75 = test system: SNB-75
SW-620 = test system: SW-620
T47D = test system: T47D
TK-10 = test system: TK-10
U-251 = test system: U-251
UACC-257 = test system: UACC-257
UACC-62 = test system: UACC-62
UO-31 = test system: UO-31
HL-60 = test system: HL-60
K562 = test system: K562
NCI-H460 = test system: NCI-H460
SR = test system: SR

Measured: GI50

CCSc1n/c(=C\c2ccco2)c2nnnn12
inactive: 786-0 > 100 µM | A498 > 100 µM | A549 > 100 µM | ACHN > 100 µM | BT-549 > 100 µM | CAKI-1 > 100 µM | CCRF-CEM > 100 µM | COLO 205 > 100 µM | DU-145 > 100 µM | EKVX > 100 µM | HCC 2998 > 100 µM | HCT-116 > 100 µM | HOP-62 > 100 µM | HOP-92 > 100 µM | HT-29 > 100 µM | Hs-578T > 100 µM | IGROV-1 > 100 µM | KM12 > 100 µM | LOX IMVI > 100 µM | M14 > 100 µM | MCF7 > 100 µM | MDA-MB-231 > 100 µM | MDA-MB-435 > 100 µM | MDA-N > 100 µM | MOLT-4 > 100 µM | Malme-3M > 100 µM | NCI-H226 > 100 µM | NCI-H23 > 100 µM | NCI-H522 > 100 µM | NCI/ADR-RES > 100 µM | OVCAR-3 > 100 µM | OVCAR-4 > 100 µM | OVCAR-5 > 100 µM | OVCAR-8 > 100 µM | PC-3 > 100 µM | RPMI-8226 > 100 µM | RXF 393 > 100 µM | SF-268 > 100 µM | SF-295 > 100 µM | SF-539 > 100 µM | SK-MEL-28 > 100 µM | SK-MEL-2 > 100 µM | SK-MEL-5 > 100 µM | SK-OV-3 > 100 µM | SN12C > 100 µM | SNB-19 > 100 µM | SNB-75 > 100 µM | SW-620 > 100 µM | T47D > 100 µM | TK-10 > 100 µM | U-251 > 100 µM | UACC-257 > 100 µM | UACC-62 > 100 µM | UO-31 > 100 µM
> 100 µM: HCT-15

CCCCOC(=O)C1CN2C=CC=NC2=NC1(C(F)(F)F)C(F)(F)F (stereo not drawn)
> 100 µM: HCT-15
inactive: 786-0 > 100 µM | A498 > 100 µM | A549 > 100 µM | ACHN > 100 µM | BT-549 > 100 µM | CAKI-1 > 100 µM | CCRF-CEM > 100 µM | COLO 205 > 100 µM | DU-145 > 100 µM | EKVX 72.6 µM | HCC 2998 > 100 µM | HCT-116 > 100 µM | HL-60 > 100 µM | HOP-62 > 100 µM | HOP-92 > 100 µM | HT-29 > 100 µM | Hs-578T > 100 µM | IGROV-1 > 100 µM | K562 > 100 µM | KM12 > 100 µM | LOX IMVI > 100 µM | M14 > 100 µM | MCF7 > 100 µM | MDA-MB-231 > 100 µM | MDA-MB-435 > 100 µM | MDA-N > 100 µM | MOLT-4 > 100 µM | Malme-3M > 100 µM | NCI-H226 > 100 µM | NCI-H23 > 100 µM | NCI-H460 > 100 µM | NCI/ADR-RES > 100 µM | OVCAR-3 > 100 µM | OVCAR-4 > 100 µM | OVCAR-5 > 100 µM | OVCAR-8 > 100 µM | PC-3 > 100 µM | RPMI-8226 > 100 µM | RXF 393 > 100 µM | SF-268 > 100 µM | SF-295 > 100 µM | SF-539 > 100 µM | SK-MEL-28 > 100 µM | SK-MEL-2 > 100 µM | SK-MEL-5 > 100 µM | SK-OV-3 > 100 µM | SN12C > 100 µM | SNB-19 > 100 µM | SNB-75 > 100 µM | SW-620 > 100 µM | T47D > 100 µM | TK-10 > 100 µM | U-251 > 100 µM | UACC-257 > 100 µM | UACC-62 > 100 µM | UO-31 > 100 µM

CCc1ccc(Nc2cc(=O)n(C)c(SCc3ccccc3)n2)cc1
62.2 µM: HCT-15
inactive: 786-0 17.5 µM | A498 14.5 µM | A549 29 µM | ACHN 75.3 µM | BT-549 > 100 µM | CAKI-1 > 100 µM | CCRF-CEM 78 µM | COLO 205 12.7 µM | DU-145 > 100 µM | EKVX 60.5 µM | HCT-116 18.2 µM | HL-60 39.8 µM | HOP-62 69.3 µM | HOP-92 20.3 µM | HT-29 21.9 µM | Hs-578T 97.3 µM | IGROV-1 83.9 µM | K562 > 100 µM | KM12 66.4 µM | LOX IMVI 33 µM | M14 > 100 µM | MCF7 28.6 µM | MDA-MB-231 59.7 µM | MDA-MB-435 80.4 µM | MDA-N > 100 µM | MOLT-4 > 100 µM | Malme-3M 57.3 µM | NCI-H226 33.4 µM | NCI-H23 > 100 µM | NCI-H522 36.1 µM | NCI/ADR-RES > 100 µM | OVCAR-3 29.4 µM | OVCAR-5 30.8 µM | OVCAR-8 > 100 µM | RPMI-8226 > 10 µM | RXF 393 23.1 µM | SF-268 97.7 µM | SF-295 57.4 µM | SF-539 30.2 µM | SK-MEL-2 > 100 µM | SK-MEL-5 51.2 µM | SK-OV-3 85.1 µM | SN12C 20 µM | SNB-19 52.6 µM | SNB-75 > 100 µM | SR 35.7 µM | SW-620 41.6 µM | T47D 95.3 µM | TK-10 > 100 µM | UACC-257 > 100 µM | UACC-62 > 100 µM | UO-31 > 100 µM

CC1=C(C#N)S(=O)(=O)c2c(oc(C)c2C)N1
inactive: 786-0 > 100 µM | A498 > 100 µM | A549 > 100 µM | ACHN > 100 µM | BT-549 > 100 µM | CAKI-1 > 100 µM | DU-145 > 100 µM | EKVX > 100 µM | HCC 2998 > 100 µM | HCT-116 > 100 µM | HOP-62 > 100 µM | HOP-92 > 100 µM | HT-29 > 100 µM | Hs-578T > 100 µM | K562 > 100 µM | KM12 > 100 µM | LOX IMVI > 100 µM | M14 > 100 µM | MCF7 > 100 µM | MDA-MB-231 > 100 µM | MDA-MB-435 > 100 µM | MDA-N > 100 µM | MOLT-4 > 100 µM | Malme-3M > 100 µM | NCI-H226 > 100 µM | NCI-H23 > 100 µM | NCI-H460 > 100 µM | NCI-H522 > 100 µM | NCI/ADR-RES > 100 µM | OVCAR-3 > 100 µM | OVCAR-4 > 100 µM | OVCAR-5 > 100 µM | OVCAR-8 > 100 µM | PC-3 > 100 µM | RPMI-8226 > 100 µM | SF-268 > 100 µM | SF-295 > 100 µM | SF-539 > 100 µM | SK-MEL-28 > 100 µM | SK-MEL-2 > 100 µM | SK-MEL-5 > 100 µM | SK-OV-3 > 100 µM | SN12C > 100 µM | SNB-19 > 100 µM | SNB-75 > 100 µM | SW-620 > 100 µM | T47D > 100 µM | TK-10 > 100 µM | U-251 > 100 µM | UACC-257 > 100 µM | UACC-62 > 100 µM | UO-31 > 100 µM
> 100 µM: HCT-15
